# Data taken from ChEMBL document CHEMBL1201862, “PubChem BioAssay data set” (2004).
# Active and inactive are the calls of the source.
# How the values were obtained:
# [1] = growth suppression of PTEN-null colon cells, dose response, cell-based, HCT116 PTEN knockout (AID 1047); format: functional;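 note: HCT116 colon tumor cells with PTEN knocked out; cells exposed to compound for 60 hours before readout; potency for loss of cell viability measured by luminescence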
# [2] = Luminescence Cell-Based Dose Retest to Confirm Inhibitors of Cancer Stem Cells. [Related pubchem assays (depositor defined):AID2717, AID2721]; format: functional; conditions: Homo sapiens
# [3] = target: T1, Probable nicotinate-nucleotide adenylyltransferase (Staphylococcus aureus (strain N315), UniProt P65502); format: functional, Staphylococcus aureus subsp. aureus N315;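 for IC50 Mean: confirmatory dose-response retesting of NadD inhibitor hits first found in an ultra-high-throughput screen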
# T1 sequence (P65502 whole entry): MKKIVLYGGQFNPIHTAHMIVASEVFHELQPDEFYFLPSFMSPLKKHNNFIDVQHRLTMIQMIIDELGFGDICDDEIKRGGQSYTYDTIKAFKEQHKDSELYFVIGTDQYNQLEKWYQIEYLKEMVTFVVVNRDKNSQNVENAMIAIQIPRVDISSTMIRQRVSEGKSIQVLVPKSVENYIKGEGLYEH
# [4] = growth suppression of beta-catenin-knockout colon cells, dose response, cell-based, HCT116, human colon tumor (AID 1045); format: functional;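 note: HCT116 colon tumor cells with beta catenin knocked out; cells exposed to compound for 60 hours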
# [5] = target: T1, Probable nicotinate-nucleotide adenylyltransferase; format: functional, Staphylococcus aureus subsp. aureus N315; conditions: read-out: IC50_Mean
# [6] = target: T2, Histone-lysine N-methyltransferase NSD2 (Homo sapiens, UniProt O96028); format: biochemical
# T2 sequence (O96028 whole entry): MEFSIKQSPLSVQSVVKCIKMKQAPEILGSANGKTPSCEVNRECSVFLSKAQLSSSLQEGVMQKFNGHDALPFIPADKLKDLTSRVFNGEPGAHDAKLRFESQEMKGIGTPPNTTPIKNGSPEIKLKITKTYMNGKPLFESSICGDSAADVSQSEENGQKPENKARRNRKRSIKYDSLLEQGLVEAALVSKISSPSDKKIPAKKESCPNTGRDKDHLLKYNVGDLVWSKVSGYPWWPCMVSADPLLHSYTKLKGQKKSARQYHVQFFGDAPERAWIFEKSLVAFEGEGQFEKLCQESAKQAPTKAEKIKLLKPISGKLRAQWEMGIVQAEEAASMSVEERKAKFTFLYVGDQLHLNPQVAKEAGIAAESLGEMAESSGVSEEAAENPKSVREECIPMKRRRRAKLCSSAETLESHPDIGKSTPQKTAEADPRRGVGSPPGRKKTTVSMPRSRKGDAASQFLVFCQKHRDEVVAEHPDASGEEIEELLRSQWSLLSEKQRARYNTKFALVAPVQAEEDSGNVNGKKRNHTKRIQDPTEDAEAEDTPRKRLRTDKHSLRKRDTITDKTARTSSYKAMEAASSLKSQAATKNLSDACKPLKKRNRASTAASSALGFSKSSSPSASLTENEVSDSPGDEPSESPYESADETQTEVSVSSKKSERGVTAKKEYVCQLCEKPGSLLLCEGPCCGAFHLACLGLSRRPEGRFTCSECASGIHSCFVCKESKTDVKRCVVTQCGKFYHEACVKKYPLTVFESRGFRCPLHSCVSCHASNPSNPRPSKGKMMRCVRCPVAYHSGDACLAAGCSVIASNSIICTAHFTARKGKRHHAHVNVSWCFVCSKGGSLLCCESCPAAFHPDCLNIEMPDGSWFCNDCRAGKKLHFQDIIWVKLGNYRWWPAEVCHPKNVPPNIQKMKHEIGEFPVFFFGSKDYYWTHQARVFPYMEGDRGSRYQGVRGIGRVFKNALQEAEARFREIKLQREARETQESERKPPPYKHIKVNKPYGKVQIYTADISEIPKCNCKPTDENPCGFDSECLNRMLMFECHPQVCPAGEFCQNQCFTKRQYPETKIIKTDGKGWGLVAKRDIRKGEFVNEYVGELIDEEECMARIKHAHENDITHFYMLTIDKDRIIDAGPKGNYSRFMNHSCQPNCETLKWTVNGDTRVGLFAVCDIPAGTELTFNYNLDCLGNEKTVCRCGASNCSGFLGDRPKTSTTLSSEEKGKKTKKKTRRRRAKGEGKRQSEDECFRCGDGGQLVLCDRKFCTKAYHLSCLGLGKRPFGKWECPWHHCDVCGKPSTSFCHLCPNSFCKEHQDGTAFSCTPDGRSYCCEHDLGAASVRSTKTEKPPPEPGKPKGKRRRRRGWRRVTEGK
# [7] = target: T3, Protein RecA (Mycobacterium tuberculosis, UniProt P9WHJ3); assay: Fluorescence Cell-Free Homogeneous Dose Retest to Identify Inhibitors of RecA-Intein Splicing Activity. [Related pubchem assays (depositor defined):AID2097, AID2223, AID489010, AID492950]; format: functional
# T3 sequence (P9WHJ3 whole entry): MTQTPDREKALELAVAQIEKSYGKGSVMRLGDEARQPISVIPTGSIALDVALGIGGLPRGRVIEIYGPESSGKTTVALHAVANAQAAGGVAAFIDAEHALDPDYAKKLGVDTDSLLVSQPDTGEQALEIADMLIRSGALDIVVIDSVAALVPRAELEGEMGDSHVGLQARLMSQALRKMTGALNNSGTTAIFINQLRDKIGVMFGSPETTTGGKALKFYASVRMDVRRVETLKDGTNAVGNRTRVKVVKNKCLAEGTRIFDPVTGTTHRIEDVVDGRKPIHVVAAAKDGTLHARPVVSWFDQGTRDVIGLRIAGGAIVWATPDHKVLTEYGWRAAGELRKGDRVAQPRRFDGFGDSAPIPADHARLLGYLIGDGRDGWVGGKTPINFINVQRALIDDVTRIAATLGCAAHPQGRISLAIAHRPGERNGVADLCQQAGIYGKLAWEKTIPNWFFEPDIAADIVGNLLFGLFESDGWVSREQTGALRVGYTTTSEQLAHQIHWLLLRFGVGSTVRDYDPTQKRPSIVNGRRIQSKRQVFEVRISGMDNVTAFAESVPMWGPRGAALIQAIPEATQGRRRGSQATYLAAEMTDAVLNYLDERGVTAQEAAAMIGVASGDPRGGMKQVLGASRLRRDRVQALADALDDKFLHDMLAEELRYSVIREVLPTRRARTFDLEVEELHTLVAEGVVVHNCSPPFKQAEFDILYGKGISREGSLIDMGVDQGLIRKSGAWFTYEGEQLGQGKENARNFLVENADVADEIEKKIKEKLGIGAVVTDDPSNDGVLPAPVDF
# [8] = target: T4, Replicative DNA helicase DnaB (Mycobacterium tuberculosis, UniProt P9WMR3); assay: DnaB intein splicing inhibitors, dose response, biochemical, cell-free fluorescence (AID 449749); format: functional
# T4 sequence (P9WMR3 whole entry): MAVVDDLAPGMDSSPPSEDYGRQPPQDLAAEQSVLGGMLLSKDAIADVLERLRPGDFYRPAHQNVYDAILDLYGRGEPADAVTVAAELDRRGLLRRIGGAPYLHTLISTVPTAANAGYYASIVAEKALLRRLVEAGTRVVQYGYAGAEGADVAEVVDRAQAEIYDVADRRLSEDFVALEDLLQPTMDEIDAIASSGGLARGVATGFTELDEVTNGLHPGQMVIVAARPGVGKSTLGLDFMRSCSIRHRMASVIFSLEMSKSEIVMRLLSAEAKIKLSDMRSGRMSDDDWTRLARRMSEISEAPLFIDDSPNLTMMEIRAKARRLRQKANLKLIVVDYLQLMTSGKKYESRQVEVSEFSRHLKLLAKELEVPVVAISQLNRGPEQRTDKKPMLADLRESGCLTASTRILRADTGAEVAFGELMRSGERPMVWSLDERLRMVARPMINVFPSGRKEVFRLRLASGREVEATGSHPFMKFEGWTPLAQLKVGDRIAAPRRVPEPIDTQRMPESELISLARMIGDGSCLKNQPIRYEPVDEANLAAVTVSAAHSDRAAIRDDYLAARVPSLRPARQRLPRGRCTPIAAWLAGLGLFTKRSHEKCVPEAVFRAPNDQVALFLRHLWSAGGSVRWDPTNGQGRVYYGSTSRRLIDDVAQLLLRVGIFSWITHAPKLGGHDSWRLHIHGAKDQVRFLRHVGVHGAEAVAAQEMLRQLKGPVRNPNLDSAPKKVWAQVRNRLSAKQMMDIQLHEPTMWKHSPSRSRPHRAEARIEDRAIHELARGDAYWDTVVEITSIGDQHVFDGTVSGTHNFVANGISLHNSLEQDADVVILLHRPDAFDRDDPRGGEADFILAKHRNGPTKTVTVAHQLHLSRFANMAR
# [9] = target: G-protein coupled receptor 35 (Homo sapiens, UniProt Q9HC97); assay: GPR35 antagonists blocking zaprinast-driven arrestin recruitment, primary screen, imaging, U2OS, beta-arrestin-GFP, zaprinast agonist (AID 2058); format: functional;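 note: antagonist potency meaning inhibition of agonist-induced arrestin redistribution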
# G-protein coupled receptor 35, sequence (Q9HC97 whole entry): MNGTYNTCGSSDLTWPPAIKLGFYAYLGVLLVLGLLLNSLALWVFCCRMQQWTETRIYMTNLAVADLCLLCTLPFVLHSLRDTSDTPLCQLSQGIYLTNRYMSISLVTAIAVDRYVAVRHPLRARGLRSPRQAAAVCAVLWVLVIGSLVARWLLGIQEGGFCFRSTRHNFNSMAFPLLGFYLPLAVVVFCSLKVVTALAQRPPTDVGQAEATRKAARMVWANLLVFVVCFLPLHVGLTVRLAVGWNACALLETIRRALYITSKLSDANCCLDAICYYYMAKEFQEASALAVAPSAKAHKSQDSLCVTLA
# [10] = A549 cell cytotoxicity, dose response, cytotoxicity control, plate reader, cherry-pick, antagonist series (AID 743412); format: functional, cell-based
# [11] = target: T5, Protein skinhead-1 (Caenorhabditis elegans, UniProt P34707); format: functional
# T5 sequence (P34707 whole entry): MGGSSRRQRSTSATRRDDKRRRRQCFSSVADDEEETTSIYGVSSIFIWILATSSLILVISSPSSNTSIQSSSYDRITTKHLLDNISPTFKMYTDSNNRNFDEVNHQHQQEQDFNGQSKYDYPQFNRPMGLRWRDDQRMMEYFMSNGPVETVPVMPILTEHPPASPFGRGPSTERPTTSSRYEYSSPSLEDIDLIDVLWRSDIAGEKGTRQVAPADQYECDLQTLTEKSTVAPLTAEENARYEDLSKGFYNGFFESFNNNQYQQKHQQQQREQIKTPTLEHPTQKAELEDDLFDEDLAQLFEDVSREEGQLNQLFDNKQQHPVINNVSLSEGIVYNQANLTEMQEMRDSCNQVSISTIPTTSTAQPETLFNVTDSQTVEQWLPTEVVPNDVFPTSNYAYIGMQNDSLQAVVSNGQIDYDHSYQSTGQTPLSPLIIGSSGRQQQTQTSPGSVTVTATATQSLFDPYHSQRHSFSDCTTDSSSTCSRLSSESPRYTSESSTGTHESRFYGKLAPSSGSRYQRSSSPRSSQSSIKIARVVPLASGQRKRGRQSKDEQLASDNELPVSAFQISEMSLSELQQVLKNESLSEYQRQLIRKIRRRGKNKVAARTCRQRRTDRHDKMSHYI
# [12] = HEK293 cell cytotoxicity, dose response, cytotoxicity control, plate reader, cherry-picked samples (AID 743446); format: functional, cell-based
# [13] = HepG2 cell cytotoxicity, dose response, cytotoxicity control, plate reader, cherry-pick, antagonist series (AID 743416); format: functional, cell-based
# [14] = MC4R antagonists, dose response, counter-screen for LGR2 antagonist project, cell-based, plate reader, cherry pick (AID 743444); format: functional;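 note: transfected HEK 293 cells stimulated with alpha-MSH peptide; potency of inhibitors of the alpha-MSH evoked signal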
# [15] = LGR2 antagonists, dose response, cell-based, HEK293, CRE-luciferase reporter, cherry pick, set 2 (AID 743343); format: functional;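 note: transfected cells were stimulated with diluted bursicon conditioned medium after compound addition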
# [16] = intracellular Trypanosoma cruzi inhibitors in host cells – cell-based, plate reader, cherry-pick samples, set 3, dose response (AID 651818); format: functional;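 note: compounds incubated with infected cells for about four days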
# [17] = NIH:OVCAR-3 ovarian cancer cell cytotoxicity, dose response, PAX8 inhibitor project, plate reader, dry powder samples (AID 743044); format: functional, cell-based
# [18] = target: Paired box protein Pax-8 (Homo sapiens, UniProt Q06710); assay: inhibitors of PAX8-driven TPO luciferase reporter, dose response, RMG-I cells, cherry-pick (AID 687027); format: functional, cell-based;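 note: luciferase reporter driven by Pax8 target thyroperoxidase promoter measured by SteadyGlo luminescence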
# Paired box protein Pax-8, sequence (Q06710 whole entry): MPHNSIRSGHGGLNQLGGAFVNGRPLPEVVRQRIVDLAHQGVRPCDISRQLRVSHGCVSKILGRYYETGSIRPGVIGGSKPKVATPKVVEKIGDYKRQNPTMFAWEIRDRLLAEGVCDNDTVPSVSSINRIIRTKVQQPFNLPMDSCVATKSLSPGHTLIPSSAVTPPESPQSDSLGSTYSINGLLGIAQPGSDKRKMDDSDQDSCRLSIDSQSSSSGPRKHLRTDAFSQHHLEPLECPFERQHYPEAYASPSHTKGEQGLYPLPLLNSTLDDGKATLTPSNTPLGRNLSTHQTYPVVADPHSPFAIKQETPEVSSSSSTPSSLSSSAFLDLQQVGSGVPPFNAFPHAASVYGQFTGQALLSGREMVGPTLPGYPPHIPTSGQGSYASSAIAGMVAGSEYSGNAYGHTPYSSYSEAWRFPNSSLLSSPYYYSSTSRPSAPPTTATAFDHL
# [19] = cytotoxicity in OVCAR8 ovarian cancer cells, dose response, PAX8 project, cell-based, plate reader, dry powder samples (AID 743197); format: functional; conditions: OVCAR-8
# [20] = HEK293T cytotoxicity, dose response, cytotoxicity control for miR-122 modulator project, cell-based, inhibitor set, cherry-pick, set 2 (AID 720697); format: functional
compound,measurement,setting,value
NS(=O)(=O)c1ccc(NC(=O)COC(=O)c2c3c(nc4ccccc24)/C(=C\c2ccc4c(c2)OCO4)CCC3)cc1,EC50,[1],17.5 µM (active)
same,AC50,[2],3.72 µM (active)
same,IC50,[3],11.9 µM (active)
same,EC50,[4],18.3 µM (active)
same,IC50,[5],21.1 µM (active)
O=C(Nc1ccccn1)c1ccc2c(=O)n3c(nc2c1)CCCCC3,AC50,[6],7.7 µM (active)
O=c1c(Cl)c(Cl)cnn1Cc1ccccc1Cl,EC50,[7],7.78 µM (active)
same,AC50,[8],15.5 µM (active)
same,IC50,[9],2.16 µM (active)
CN(C)CC(O)c1ccc(C=Cc2ccc(Cl)cc2)cc1 (stereo not drawn),AC50,[10],8.82 µM (active)
same,IC50,[11],58.1 µM (inactive)
same,AC50,[12],14.3 µM (active)
same,AC50,[13],8.24 µM (active)
same,AC50,[14],12.7 µM (active)
same,AC50,[15],14.6 µM (active)
Cc1cccc(C)c1-n1nnnc1C(CCc1ccccc1)N1CCC(n2c(O)nc3ccccc32)CC1 (stereo not drawn),AC50,[10],16.6 µM (active)
same,AC50,[12],6.12 µM (active)
same,AC50,[13],2.71 µM (active)
same,AC50,[14],8.26 µM (active)
same,AC50,[15],9.92 µM (active)
C[C@H]1CN([C@@H](C)CO)C(=O)Cc2cc(NC(=O)NC3CCCCC3)ccc2O[C@H]1CN(C)Cc1ccc(-c2ccccc2)cc1,AC50,[16],2.67 µM (active)
same,AC50,[17],54.3 µM (active)
same,AC50,[18],5.8 µM (active)
same,AC50,[19],> 70 µM (inactive)
C[C@H](CO)N1C[C@H](C)[C@@H](CN(C)Cc2ccc(Cl)c(Cl)c2)Oc2ccc(NC(=O)Nc3ccc(F)cc3)cc2CC1=O,AC50,[18],13.2 µM (active)
same,AC50,[19],54.4 µM (active)
C[C@@H]1CN([C@H](C)CO)S(=O)(=O)c2ccc(-c3ccc(C(=O)N(C)C)cc3)cc2O[C@@H]1CN(C)C(=O)C1CCC1,AC50,[20],0.493 µM (active)
CN(C[C@H]1N[C@@H](CO)[C@@H]1c1ccc(C2=CCCC2)cc1)C(=O)c1ccccn1,AC50,[20],2.46 µM (active)
